Reference: publication PMC5435539 (Journal of applied toxicology : JAT, 2017)
Read-outs that look alike come from different tables or passages of the source.

What was measured:
[1] = test system: MCF-7 breast cancer cells; assay: Alamar Blue cell viability assay, 72 h; format: cell-based; conditions: read-out: IC50 MCF-7 cell viability, 72 h
[2] = test system: MCF-10A breast epithelial cells; assay: Cell viability assay; format: cell-based, human; conditions: for IC50 MCF-10A: 24 h exposure, 1 nM-100 μM, MTS or Alamar Blue, mean ±SEM; for IC50: Homo sapiens, MCF-10A, 24 h, read-out: IC50 MCF-10A
[3] = test system: MCF-10A breast epithelial cells; assay: Reactive oxygen species; format: cell-based, human; conditions: 2 h, MCF-10A cells
CYP1A2 mRNA = assay: Real-time quantitative RT-PCR, B[a]P-induced gene expression in MCF-7 cells; format: cell-based; conditions: Gg 10-100 nM with B[a]P, 24 h
[4] = test system: CYP1A1 protein expression; assay: B[a]P-induced CYP1A1 protein expression; format: cell-based; conditions: data not shown
human CYP3A4 = human CYP3A4 (Homo sapiens, UniProt P08684); assay: Fluorometric CYP inhibition assay; format: biochemical; conditions: read-out: IC50 CYP3A4 activity; recombinant human CYP3A4, BFC 50 μM
human CYP3A4, sequence (P08684 whole entry): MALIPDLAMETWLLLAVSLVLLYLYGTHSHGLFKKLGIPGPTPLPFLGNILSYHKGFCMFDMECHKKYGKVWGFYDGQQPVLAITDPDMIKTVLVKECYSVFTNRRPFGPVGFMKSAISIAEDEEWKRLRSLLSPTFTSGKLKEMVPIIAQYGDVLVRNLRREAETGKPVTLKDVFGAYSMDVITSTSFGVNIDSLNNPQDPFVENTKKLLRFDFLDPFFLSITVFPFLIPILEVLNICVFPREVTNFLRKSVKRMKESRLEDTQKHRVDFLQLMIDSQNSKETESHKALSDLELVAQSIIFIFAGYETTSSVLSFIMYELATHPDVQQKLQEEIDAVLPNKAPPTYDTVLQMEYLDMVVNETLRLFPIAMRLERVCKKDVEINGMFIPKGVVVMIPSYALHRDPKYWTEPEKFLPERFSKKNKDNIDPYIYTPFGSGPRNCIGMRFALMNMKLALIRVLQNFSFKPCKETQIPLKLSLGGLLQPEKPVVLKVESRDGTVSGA

CYP1 enzymes mRNA = assay: Endogenous CYP1 mRNA expression in breast cancer cells; format: cell-based; conditions: Gg alone, data not shown
human CYP1A1 = biological target: T1, human CYP1A1 (Homo sapiens, UniProt P04798); assay: Fluorometric CYP inhibition assay; format: biochemical
T1 sequence (P04798 1-512): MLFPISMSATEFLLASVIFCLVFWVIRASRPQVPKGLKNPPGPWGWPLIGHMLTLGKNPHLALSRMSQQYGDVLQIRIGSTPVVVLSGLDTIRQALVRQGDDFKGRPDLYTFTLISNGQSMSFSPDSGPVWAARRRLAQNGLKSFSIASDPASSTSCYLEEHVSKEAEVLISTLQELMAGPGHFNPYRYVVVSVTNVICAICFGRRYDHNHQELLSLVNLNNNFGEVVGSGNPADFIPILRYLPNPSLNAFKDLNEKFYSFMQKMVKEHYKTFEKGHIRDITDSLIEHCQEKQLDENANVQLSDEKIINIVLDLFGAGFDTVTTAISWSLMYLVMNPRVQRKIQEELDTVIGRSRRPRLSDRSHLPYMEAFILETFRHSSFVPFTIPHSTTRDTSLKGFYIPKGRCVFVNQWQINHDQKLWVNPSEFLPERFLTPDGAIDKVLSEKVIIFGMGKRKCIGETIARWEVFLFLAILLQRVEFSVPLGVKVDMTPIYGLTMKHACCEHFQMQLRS

[5] = test system: HT29 colon carcinoma cells; assay: Cell viability assay; format: cell-based; conditions: for IC50 HT29: 24 h exposure, 1 nM-100 μM, MTS or Alamar Blue, mean ±SEM; for IC50: Homo sapiens, HT-29, 24 h, read-out: IC50 HT29
CYP1A1 mRNA = assay: Real-time quantitative RT-PCR, B[a]P-induced gene expression in MCF-7 cells; format: cell-based; conditions: Gg 10-100 nM with B[a]P, 24 h
MCF-7 cells [6] = assay: Alamar Blue cell viability assay, 24 h; format: cell-based; conditions: read-out: IC50 MCF-7 (Alamar Blue), 24 h treatment
human CYP1B1 = biological target: T2, human CYP1B1 (Homo sapiens, UniProt Q16678); assay: Fluorometric CYP inhibition assay; format: biochemical; conditions: recombinant human CYP1B1
T2 sequence (Q16678 1-543): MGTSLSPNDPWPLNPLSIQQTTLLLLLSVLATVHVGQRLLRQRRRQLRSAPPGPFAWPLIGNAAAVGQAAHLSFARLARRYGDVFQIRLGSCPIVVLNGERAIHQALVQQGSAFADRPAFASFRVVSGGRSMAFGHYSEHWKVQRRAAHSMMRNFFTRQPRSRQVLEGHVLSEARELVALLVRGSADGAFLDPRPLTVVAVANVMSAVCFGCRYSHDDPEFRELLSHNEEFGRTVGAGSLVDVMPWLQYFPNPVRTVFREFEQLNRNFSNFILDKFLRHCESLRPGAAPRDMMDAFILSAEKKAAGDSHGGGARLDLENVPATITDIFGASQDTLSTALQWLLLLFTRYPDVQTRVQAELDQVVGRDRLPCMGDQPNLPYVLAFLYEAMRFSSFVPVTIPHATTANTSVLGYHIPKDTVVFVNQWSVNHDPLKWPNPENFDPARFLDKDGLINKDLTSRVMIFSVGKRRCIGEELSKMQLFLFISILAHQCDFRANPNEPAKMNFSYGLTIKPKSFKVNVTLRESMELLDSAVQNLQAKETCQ

human CYP2C19 = human CYP2C19 (Homo sapiens, UniProt P33261); assay: Fluorometric CYP inhibition assay; format: biochemical; conditions: read-out: IC50 CYP2C19 activity; recombinant human CYP2C19, CEC 25 μM
human CYP2C19, sequence (P33261 whole entry): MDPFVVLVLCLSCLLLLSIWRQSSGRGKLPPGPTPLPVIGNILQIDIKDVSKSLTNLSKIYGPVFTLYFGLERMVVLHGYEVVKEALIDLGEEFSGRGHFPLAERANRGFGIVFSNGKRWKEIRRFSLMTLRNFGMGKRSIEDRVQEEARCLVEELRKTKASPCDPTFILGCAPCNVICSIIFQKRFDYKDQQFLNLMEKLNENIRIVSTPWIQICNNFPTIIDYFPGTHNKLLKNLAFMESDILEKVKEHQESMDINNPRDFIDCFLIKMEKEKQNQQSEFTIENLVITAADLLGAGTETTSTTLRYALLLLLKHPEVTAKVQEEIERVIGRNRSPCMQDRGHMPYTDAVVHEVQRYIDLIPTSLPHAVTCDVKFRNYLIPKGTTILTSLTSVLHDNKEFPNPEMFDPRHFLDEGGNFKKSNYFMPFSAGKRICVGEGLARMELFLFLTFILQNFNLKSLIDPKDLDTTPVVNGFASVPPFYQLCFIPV

MCF-7 cells [7] = assay: Annexin V-7AAD apoptosis assay; format: cell-based; conditions: 1 μM, 24 h, AnnexinV-7AAD
[8] = test system: CCD18 Co normal colon cells; assay: Cell viability assay; format: cell-based; conditions: for IC50 CCD18 Co: 24 h exposure, 1 nM-100 μM, MTS or Alamar Blue, mean ±SEM

CC/C(=C(\c1ccc(O)cc1)c1ccc(OCCN(C)C)cc1)c1ccccc1 [4OH-Tam, 4-hydroxy-tamoxifen]
IC50 ([1]; Homo sapiens, MCF7, 72 h): 2.6 µM

O=c1[nH]cc(F)c(=O)[nH]1 [5-Fluorouracil, reference compound]
IC50 ([1]; Homo sapiens, MCF7, 72 h): > 10 µM | IC50 MCF-10A [2]: NI (No inhibition (<10% inhibition at 60 μM))

O=C1C=Cc2ccc3c4c(ccc1c24)-c1ccccc1C3=O [1,6-BPQ, benzo[a]pyrene-1,6-quinone, reference compound]
increase in ROS levels ([3]; 1,6-BPQ 2 μM): 2 fold

glaucarubulone glucoside [Gg]
effect on B[a]P-induced CYP1A2 mRNA expression (CYP1A2 mRNA): sustained inhibition | effect on 1,6-BPQ-mediated increases in ROS production ([3]; Gg 1 μM with 1,6-BPQ 2 μM): effectively suppressed | effect on B[a]P-mediated induced CYP1A1 protein expression [4]: could not appreciably suppress | IC50 (human CYP3A4): 1.31 ± 0.49 µM | effect on endogenous mRNA expression of CYP1 enzymes (CYP1 enzymes mRNA): did not appreciably affect | mode of inhibition of CYP1A1 (human CYP1A1; Eadie-Hofstee plots): non-competitive | IC50 (human CYP1A1; read-out: IC50 CYP1A1 activity, recombinant human CYP1A1, CEC 0.5 μM): 6.93 ± 0.31 µM | Ki (human CYP1A1; read-out: Ki CYP1A1, Eadie-Hofstee plots, non-competitive inhibition): 7.1 ± 1.44 µM | IC50 ([1]; 72 h exposure, Alamar Blue): 0.121 µM | IC50 HT29 [5]: NI (No inhibition (<10% inhibition at 60 μM)) | effect on B[a]P-induced CYP1A1 mRNA expression (CYP1A1 mRNA): inhibited B[a]P-induced CYP1A1 mRNA expression in a dose-dependent fashion | IC50 (MCF-7 cells [6]): 3.52 ± 0.918 µM | IC50 MCF-10A [2]: NI (No inhibition (<10% inhibition at 60 μM)) | inhibition of CYP1B1 activity (human CYP1B1): moderately inhibited | IC50 (human CYP2C19): 19.4 ± 1.11 µM | early apoptosis (MCF-7 cells [7]): 26.5 ± 9.5%

CC(=O)O[C@H]1C(=O)O[C@@H]2C[C@H]3C(C)=CC(=O)[C@@H](O)[C@]3(C)[C@H]3[C@]4(O)OC[C@]32[C@@H]1[C@@H](C)[C@H]4O [(−)-Holacanthone, (−)-holacanthone]
IC50 [5]: 9.91 ± 0.52 µM | IC50 [2]: 0.3 µM | IC50 ([8]; Homo sapiens, CCD-18Co, 24 h, read-out: IC50 CCD18 Co): < 5 µM

COc1cccc2c1C(=O)c1c(O)c3c(c(O)c1C2=O)C[C@@](O)(C(=O)CO)C[C@@H]3O[C@H]1C[C@H](N)[C@H](O)[C@H](C)O1 [Doxorubicin, reference compound]
IC50 ([1]; Homo sapiens, MCF7, 72 h): 0.1 µM | IC50 [2]: 30.2 ± 1.29 µM

CCC1(c2ccccc2)C(=O)NC(=O)N(Cc2ccccc2)C1=O (single isomer, unassigned; (-)) [NBPB, (−)-N-3-benzyl-phenobarbital, reference compound]
IC50 (human CYP2C19): 0.3 ± 0.01 µM

COc1cc2ccc(=O)oc2cc1O [Scopoletin, scopoletin]
IC50 [5]: 19.3 ± 0.348 µM | IC50 MCF-10A [2]: NI (No inhibition (<10% inhibition at 60 μM)) | IC50 CCD18 Co [8]: NI (No inhibition (<10% inhibition at 60 μM)) | inhibition of viability of CCD18Co normal colon cells ([8]; at 60 μM, 24 h): < 10%

CC1=CC(=O)[C@@H](O)[C@]2(C)[C@H]3[C@]4(O)OC[C@]35[C@H]([C@@H](C)[C@H]4O)[C@@H](O)C(=O)O[C@@H]5C[C@@H]12 [(−)-Glaucarubolone, (−)-glaucarubolone]
IC50 HT29 [5]: NI (No inhibition (<10% inhibition at 60 μM)) | IC50 MCF-10A [2]: NI (No inhibition (<10% inhibition at 60 μM)) | IC50 CCD18 Co [8]: NI (No inhibition (<10% inhibition at 60 μM))
